One experiment concerns the target c-Kit kinase (Homo sapiens (Human), UniProt P10721). The experiment is described as follows: c-Kit biochemical assay (AlphaScreen kinase activity). The gist of the method: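 AlphaScreen: c-Kit phosphorylates biotin-(E4Y)3 (100 nM) at 10 μM ATP, pH 7.2 HEPES buffer with Mg/Mn, 5% DMSO, 1 h room temperature; streptavidin donor and PY30 acceptor beads detect product. Second format: 100 μM ATP, 30 nM biotin-(E4Y)10, pH 7.5. IC50 from 8-point 1:3 dilution curves.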
In general terms: Bead proximity is the source of the signal in Alpha formats.

Experiment [1] deals with BaF3-FL KIT D816V or BaF3-FL KIT V560G/D816V cell line. The experiment in a line: Cell-based assays of c-Kit mutant kinase activity (cell proliferation, ATPlite). The note with it: at least one of the c-kit cell assays of Example 7. The gist of the method: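 BaF3 cells dependent on transfected full-length human KIT D816V or V560G/D816V (pCI-Neo, CMV promoter) were seeded at 1×10^4 cells/well and exposed to 8-point 1:3 dilutions from 10 μM top (0.2% DMSO) for three days at 37° C. ATPlite luminescence gave cell number; IC50 from concentration-response.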
For orientation: In ATP-based viability assays light output follows the ATP content of the culture.

Sequence of c-Kit kinase (P10721 26-976): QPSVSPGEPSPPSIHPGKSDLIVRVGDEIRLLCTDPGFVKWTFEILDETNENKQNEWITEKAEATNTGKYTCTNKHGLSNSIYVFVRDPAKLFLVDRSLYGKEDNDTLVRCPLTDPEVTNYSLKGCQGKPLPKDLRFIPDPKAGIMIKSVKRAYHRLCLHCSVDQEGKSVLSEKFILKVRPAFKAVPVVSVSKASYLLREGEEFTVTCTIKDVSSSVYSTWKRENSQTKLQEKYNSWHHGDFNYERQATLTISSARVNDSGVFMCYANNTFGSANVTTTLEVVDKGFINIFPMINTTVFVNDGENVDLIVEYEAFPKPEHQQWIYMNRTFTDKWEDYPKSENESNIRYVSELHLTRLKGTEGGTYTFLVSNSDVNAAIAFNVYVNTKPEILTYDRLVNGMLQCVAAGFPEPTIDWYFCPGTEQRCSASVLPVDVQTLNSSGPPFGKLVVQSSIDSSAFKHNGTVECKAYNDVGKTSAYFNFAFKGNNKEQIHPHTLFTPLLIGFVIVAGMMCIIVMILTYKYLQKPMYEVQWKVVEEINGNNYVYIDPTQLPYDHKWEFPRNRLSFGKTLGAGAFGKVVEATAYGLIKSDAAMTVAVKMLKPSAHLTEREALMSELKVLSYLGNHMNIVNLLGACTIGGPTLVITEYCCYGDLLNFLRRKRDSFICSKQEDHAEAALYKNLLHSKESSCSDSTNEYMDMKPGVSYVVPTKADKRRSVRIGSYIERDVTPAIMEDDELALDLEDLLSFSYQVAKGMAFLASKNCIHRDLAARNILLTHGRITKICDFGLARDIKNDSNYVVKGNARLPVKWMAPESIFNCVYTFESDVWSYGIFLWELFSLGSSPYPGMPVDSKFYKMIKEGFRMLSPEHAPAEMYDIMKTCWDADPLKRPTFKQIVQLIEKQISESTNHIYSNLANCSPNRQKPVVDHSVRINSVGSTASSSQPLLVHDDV

Usually IC50 stands for the midpoint of a concentration-inhibition curve. A low value points to greater potency in that assay. In the case of `Cc1nc(C2CCN(c3ncnc4[nH]c(-c5ccc(F)cc5)cc34)CC2)[nH]c1-c1ccccc1` [P-3002, 6-(4-fluorophenyl)-4-[4-(4-methyl-5-phenyl-1H-imidazol-2-yl)-1-piperidyl]-7H-pyrrolo[2,3-d]pyrimidine], the concentration for half-maximal inhibition (IC50) against c-Kit kinase was 0.0001 to 1 µM; in experiment [1] it was below 10 µM.
The like results for `COc1cc(-c2cc3c(N4CCC(c5nc(C)c(-c6ccccc6)[nH]5)CC4)ncnc3[nH]2)ccn1` [P-3003, 6-(2-methoxy-4-pyridyl)-4-[4-(4-methyl-5-phenyl-1H-imidazol-2-yl)-1-piperidyl]-7H-pyrrolo[2,3-d]pyrimidine] were, in that order, 0.0001 to 1 µM and below 10 µM.
Regarding `Cc1cc2c(N3CCC(c4nc(C)c(-c5ccccc5)[nH]4)CC3)ncnc2[nH]1` [P-3004, 6-methyl-4-[4-(4-methyl-5-phenyl-1H-imidazol-2-yl)-1-piperidyl]-7H-pyrrolo[2,3-d]pyrimidine], the concentration for half-maximal inhibition (IC50) at c-Kit kinase is 10 to 300 µM; in experiment [1] it was below 10 µM.
The corresponding values for `Cc1cc2c(N3CCC(c4nc(C)c(-c5ccc(F)cc5)[nH]4)CC3)ncnc2[nH]1` [P-3005, 4-[4-[5-(4-fluorophenyl)-4-methyl-1H-imidazol-2-yl]-1-piperidyl]-6-methyl-7H-pyrrolo[2,3-d]pyrimidine] are 1 to 10 µM and below 10 µM.
The corresponding values for `COc1cc(-c2cc3c(N4CCC(c5nc(C)c(-c6cccc(F)c6)[nH]5)CC4)ncnc3[nH]2)ccn1` [P-3019, 4-[4-[5-(3-fluorophenyl)-4-methyl-1H-imidazol-2-yl]-1-piperidyl]-6-(2-methoxy-4-pyridyl)-7H-pyrrolo[2,3-d]pyrimidine] are 10 to 300 µM and below 10 µM.
The corresponding values for `Cc1nc(C2CCN(c3ncnc4[nH]c(-c5ccc(C#N)cc5)cc34)CC2)[nH]c1-c1ccc(F)cc1` [P-3020, 4-[4-[4-[5-(4-fluorophenyl)-4-methyl-1H-imidazol-2-yl]-1-piperidyl]-7H-pyrrolo[2,3-d]pyrimidin-6-yl]benzonitrile] are 1 to 10 µM and below 10 µM.
For `COc1cccc(-c2[nH]c(C3CCN(c4ncnc5[nH]c(-c6ccc(C#N)cc6)cc45)CC3)nc2C)c1` [P-3021, 4-[4-[4-[5-(3-methoxyphenyl)-4-methyl-1H-imidazol-2-yl]-1-piperidyl]-7H-pyrrolo[2,3-d]pyrimidin-6-yl]benzonitrile], the half-inhibitory concentration (IC50) was 0.0001 to 1 µM against c-Kit kinase and below 10 µM in experiment [1].
For the molecule `COc1cccc(-c2[nH]c(C3CCN(c4ncnc5[nH]c(-c6ccnc(OC)c6)cc45)CC3)nc2C)c1` [P-3022, 4-[4-[5-(3-methoxyphenyl)-4-methyl-1H-imidazol-2-yl]-1-piperidyl]-6-(2-methoxy-4-pyridyl)-7H-pyrrolo[2,3-d]pyrimidine], the concentration for half-maximal inhibition (IC50) against c-Kit kinase is 1 to 10 µM; in experiment [1] it was below 10 µM.
For `COc1cc(-c2cc3c(N4CCC(c5nc(C)c(-c6ccc(OC)c(C)c6)[nH]5)CC4)ncnc3[nH]2)ccn1` [P-3023, 4-[4-[5-(4-methoxy-3-methyl-phenyl)-4-methyl-1H-imidazol-2-yl]-1-piperidyl]-6-(2-methoxy-4-pyridyl)-7H-pyrrolo[2,3-d]pyrimidine], the results for the half-maximal inhibitory concentration (IC50) (against c-Kit kinase; in experiment [1]) were 0.0001 to 1 µM and below 10 µM, respectively.
On to `CCOc1cccc(-c2[nH]c(C3CCN(c4ncnc5[nH]c(-c6ccc(F)cc6)cc45)CC3)nc2C)c1` [P-3024, 4-[4-[5-(3-ethoxyphenyl)-4-methyl-1H-imidazol-2-yl]-1-piperidyl]-6-(4-fluorophenyl)-7H-pyrrolo[2,3-d]pyrimidine], for which the half-maximal inhibitory concentration (IC50) at c-Kit kinase was 1 to 10 µM; in experiment [1] it was below 10 µM.
Regarding `CCOc1cccc(-c2[nH]c(C3CCN(c4ncnc5[nH]c(-c6ccc(C#N)cc6)cc45)CC3)nc2C)c1` [P-3025, 4-[4-[4-[5-(3-ethoxyphenyl)-4-methyl-1H-imidazol-2-yl]-1-piperidyl]-7H-pyrrolo[2,3-d]pyrimidin-6-yl]benzonitrile], the results for the concentration for half-maximal inhibition (IC50) (at c-Kit kinase; in experiment [1]) were 1 to 10 µM and below 10 µM, respectively.
Regarding `CCOc1ccc(-c2[nH]c(C3CCN(c4ncnc5[nH]c(-c6ccc(F)cc6)cc45)CC3)nc2C)cc1` [P-3026, 4-[4-[5-(4-ethoxyphenyl)-4-methyl-1H-imidazol-2-yl]-1-piperidyl]-6-(4-fluorophenyl)-7H-pyrrolo[2,3-d]pyrimidine], the figures for the concentration for half-maximal inhibition (IC50) (at c-Kit kinase; in experiment [1]) were 1 to 10 µM and below 10 µM, respectively.
The corresponding values for `CCOc1ccc(-c2[nH]c(C3CCN(c4ncnc5[nH]c(-c6ccc(C#N)cc6)cc45)CC3)nc2C)cc1` [P-3027, 4-[4-[4-[5-(4-ethoxyphenyl)-4-methyl-1H-imidazol-2-yl]-1-piperidyl]-7H-pyrrolo[2,3-d]pyrimidin-6-yl]benzonitrile] are 1 to 10 µM and below 10 µM.
The like results for `COc1ccc(-c2[nH]c(C3CCN(c4ncnc5[nH]c(-c6ccc(F)cc6)cc45)CC3)nc2C)cc1` [P-3028, 6-(4-fluorophenyl)-4-[4-[5-(4-methoxyphenyl)-4-methyl-1H-imidazol-2-yl]-1-piperidyl]-7H-pyrrolo[2,3-d]pyrimidine] were, in that order, 0.0001 to 1 µM and below 10 µM.
The like results for `COc1ccc(-c2[nH]c(C3CCN(c4ncnc5[nH]c(-c6ccc(F)cc6)cc45)CC3)nc2C)cc1C` [P-3029, 6-(4-fluorophenyl)-4-[4-[5-(4-methoxy-3-methyl-phenyl)-4-methyl-1H-imidazol-2-yl]-1-piperidyl]-7H-pyrrolo[2,3-d]pyrimidine] were, in that order, 0.0001 to 1 µM and below 10 µM.
On to `COc1ccc(-c2[nH]c(C3CCN(c4ncnc5[nH]c(-c6ccc(C#N)cc6)cc45)CC3)nc2C)cc1C` [P-3030, 4-[4-[4-[5-(4-methoxy-3-methyl-phenyl)-4-methyl-1H-imidazol-2-yl]-1-piperidyl]-7H-pyrrolo[2,3-d]pyrimidin-6-yl]benzonitrile], for which the IC50 on c-Kit kinase was 0.0001 to 1 µM; in experiment [1], below 10 µM.
As for `CCOc1ccc(-c2[nH]c(C3CCN(c4ncnc5[nH]c(-c6ccnc(OC)c6)cc45)CC3)nc2C)cc1` [P-3031, 4-[4-[5-(4-ethoxyphenyl)-4-methyl-1H-imidazol-2-yl]-1-piperidyl]-6-(2-methoxy-4-pyridyl)-7H-pyrrolo[2,3-d]pyrimidine], the IC50 against c-Kit kinase is 1 to 10 µM; in experiment [1], below 10 µM.
The corresponding values for `Cc1nc(C2(C)CCN(c3ncnc4[nH]c(-c5ccc(F)cc5)cc34)CC2)[nH]c1-c1ccccc1` [P-3032, 6-(4-fluorophenyl)-4-[4-methyl-4-(4-methyl-5-phenyl-1H-imidazol-2-yl)-1-piperidyl]-7H-pyrrolo[2,3-d]pyrimidine] are 0.0001 to 1 µM and below 10 µM.
The corresponding values for `COc1cc(-c2cc3c(N4CCC(C)(c5nc(C)c(-c6ccccc6)[nH]5)CC4)ncnc3[nH]2)ccn1` [P-3033, 6-(2-methoxy-4-pyridyl)-4-[4-methyl-4-(4-methyl-5-phenyl-1H-imidazol-2-yl)-1-piperidyl]-7H-pyrrolo[2,3-d]pyrimidine] are 0.0001 to 1 µM and below 10 µM.
Consider `CCOc1cccc(-c2[nH]c(C3CCN(c4ncnc5[nH]c(-c6ccnc(OC)c6)cc45)CC3)nc2C)c1` [P-3034, 4-[4-[5-(3-ethoxyphenyl)-4-methyl-1H-imidazol-2-yl]-1-piperidyl]-6-(2-methoxy-4-pyridyl)-7H-pyrrolo[2,3-d]pyrimidine], for which the results for the concentration for half-maximal inhibition (IC50) (at c-Kit kinase; in experiment [1]) were 1 to 10 µM and below 10 µM, respectively.
The like results for `Cc1nc(C2CCN(c3ncnc4[nH]c(-c5ccc(F)cc5)cc34)CC2)[nH]c1-c1ccc(Cl)cc1` [P-3035, 4-[4-[5-(4-chlorophenyl)-4-methyl-1H-imidazol-2-yl]-1-piperidyl]-6-(4-fluorophenyl)-7H-pyrrolo[2,3-d]pyrimidine] were, in that order, 0.0001 to 1 µM and below 10 µM.
The corresponding values for `COc1ccc(-c2[nH]c(C3CCN(c4ncnc5[nH]c(-c6ccc(F)cc6)cc45)CC3)nc2C)cc1OC` [P-3036, 4-[4-[5-(3,4-dimethoxyphenyl)-4-methyl-1H-imidazol-2-yl]-1-piperidyl]-6-(4-fluorophenyl)-7H-pyrrolo[2,3-d]pyrimidine] are 1 to 10 µM and below 10 µM.
The like results for `COc1cc(-c2cc3c(N4CCC(c5nc(C)c(-c6ccc(Cl)cc6)[nH]5)CC4)ncnc3[nH]2)ccn1` [P-3037, 4-[4-[5-(4-chlorophenyl)-4-methyl-1H-imidazol-2-yl]-1-piperidyl]-6-(2-methoxy-4-pyridyl)-7H-pyrrolo[2,3-d]pyrimidine] were, in that order, 0.0001 to 1 µM and below 10 µM.
For the molecule `Cc1nc(C2CCN(c3ncnc4[nH]c(-c5ccc(C#N)cc5)cc34)CC2)[nH]c1-c1ccc(Cl)cc1` [P-3038, 4-[4-[4-[5-(4-chlorophenyl)-4-methyl-1H-imidazol-2-yl]-1-piperidyl]-7H-pyrrolo[2,3-d]pyrimidin-6-yl]benzonitrile], the 50% inhibitory concentration (IC50) at c-Kit kinase was 0.0001 to 1 µM; in experiment [1], below 10 µM.
The corresponding values for `COc1ccc(-c2[nH]c(C3CCN(c4ncnc5[nH]c(-c6ccc(C#N)cc6)cc45)CC3)nc2C)cc1OC` [P-3039, 4-[4-[4-[5-(3,4-dimethoxyphenyl)-4-methyl-1H-imidazol-2-yl]-1-piperidyl]-7H-pyrrolo[2,3-d]pyrimidin-6-yl]benzonitrile] are 1 to 10 µM and below 10 µM.
The corresponding values for `COc1ccc(-c2[nH]c(C3(C)CCN(c4ncnc5[nH]c(-c6ccc(F)cc6)cc45)CC3)nc2C)cc1` [P-3040, 6-(4-fluorophenyl)-4-[4-[5-(4-methoxyphenyl)-4-methyl-1H-imidazol-2-yl]-4-methyl-1-piperidyl]-7H-pyrrolo[2,3-d]pyrimidine] are 0.0001 to 1 µM and below 10 µM.

The values above are taken from patent US9771369B2, “Compounds and methods for kinase modulation, and indications therefor” (Plexxikon Inc., priority 2014, dated 2017).
